Test results from patent US11319324B2, “Pyrazolo-pyrrolo-pyrimidine-dione derivatives as P2X3 inhibitors” (Bayer Aktiengesellschaft, priority 2017, dated 2022).

What was measured:
Assay type in all cases: cell-based
[1] = target: T1, human P2X3 receptor (Homo sapiens, UniProt P56373); assay: Intracellular calcium measurement, antagonist activity at human P2X3 receptors (hP2X3 1321N1), Fluo8; parameters: expressed in transfected cells; host or cells: human astrocytoma 1321N1 (1312N1 [sic]); conditions: column 3); 1321N1 cells, human P2X3, Fluo8, agonist ATP at EC50
T1 sequence (P56373 1-397): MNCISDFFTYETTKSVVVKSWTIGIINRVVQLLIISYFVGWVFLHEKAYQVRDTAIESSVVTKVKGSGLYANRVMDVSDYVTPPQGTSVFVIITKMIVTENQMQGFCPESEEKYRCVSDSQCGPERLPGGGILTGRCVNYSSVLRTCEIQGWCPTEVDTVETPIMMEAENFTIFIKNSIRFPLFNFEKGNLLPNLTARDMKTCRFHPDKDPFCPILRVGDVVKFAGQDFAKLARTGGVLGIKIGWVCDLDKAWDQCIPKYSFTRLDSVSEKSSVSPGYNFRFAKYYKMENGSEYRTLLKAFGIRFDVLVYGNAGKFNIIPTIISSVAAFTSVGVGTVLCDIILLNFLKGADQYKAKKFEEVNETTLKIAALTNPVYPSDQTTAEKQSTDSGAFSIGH
Description: (§1) 3) And 4) Intracellular Calcium Measurement to Compare Antagonist Activity at Human P2X3 Receptors (hP2X3 1321N1) and at Human P2X2/3 Receptors (hP2X23 1321N1)
(§2) The comparison of antagonistic activity at the P2X3 versus the P2X2/3 receptor of the compounds of the invention were performed by use of recombinant cell lines. These cell lines derived originally from the human astrocytoma cell line […] (Macintyre E H, Pontén J, Vatter A E. Acta Pathol Microbiol Scand A. 1972; 80(2):267-83). The cell lines are stably transfected with the human P2X3 receptor forming homotrimeric P2X3 receptors or are co-transfected with P2X2 and P2X3 forming heterotrimeric P2X2/3 receptors. Stimulation of the receptors with the agonist ATP leads to a conformational change of the receptors and influx of extracellular calcium ions through the open ion channel. The cytoplasmatic calcium transient is detected via the calcium sensitive dye Fluo8. The strength of Fluo8 fluorescence signal corresponds to the level of receptor activation. An inhibitor would decrease the signal depending on its potency and concentration. Fluorescence was measured by use of a suitable fluorescence reader.
(§3) On the day before the assay, the cells were plated in culture medium (DMEM high glucose, 10% FCS, 1% MEM non-essential amino acids, 4 mM Glutamax) in 384-well poly-D-lysine coated microtiter plates and kept in a cell incubator (96% humidity, 5% v/v CO2, 37° C.). On the day of the assay medium was exchanged by Fluo8 containing buffer and incubated for 60 minutes. Test compounds were added at various concentrations and plates were incubated for 10 minutes. In the fluorescence reader a 3 seconds baseline measurement was performed and the agonist ATP was applied at EC50 concentration of the respective receptor during constant fluorescence measurement for 120 seconds.

[2] = target: T1, human P2X3 receptor; assay: Intracellular calcium measurement to assess antagonist activity at human P2X3 receptors (hP2X3 CHO), photina luminescence; parameters: expressed in transfected cells; host or cells: Chinese hamster ovary (CHO) cells; conditions: column 2), CHO cells, agonist α,β-methylene-ATP at EC50
Description: 2) Intracellular Calcium Measurement to Assess Antagonist Activity at Human P2X3 Receptors (hP2X3 CHO)
The determination of antagonistic activity at the P2X3 receptor of the compounds of the invention was performed by use of a recombinant cell line. This cell line derives originally from the Chinese hamster ovary (CHO) cell line (Tjio J. H.; Puck T. T., 1958, J. Exp. Med. 108: 259-271). The cell line is stably transfected with the human P2X3 receptor and a calcium-sensitive photoprotein, mitochondrial photina, which, after reconstitution with the cofactor coelenterazine, emits light in dependence of calcium binding [Bovolenta S, Foti M, Lohmer S, Corazza S., J Biomol Screen. 2007 August; 12(5):694-704]. The strength of the photina luminescence signal corresponds to the level of receptor activation upon agonist binding. An inhibitor would decrease the signal depending on its potency and concentration. Bioluminescence was detected using a suitable luminometer [Milligan G, Marshall F, Rees S, Trends in Pharmacological Sciences 17,235-237 (1996)].
On the day before the assay, the cells were plated out in culture medium (DMEM/F12 (PAN, P04-41451), 10% FCS) in 384-well microtiter plates and kept in a cell incubator (96% humidity, 5% v/v CO2, […]). On the day of the assay medium was replaced by 2 mM Ca-tyrode buffer containing 5 μg/ml coelenterazine. Plates were incubated for 3 hours at 37° C. (96% humidity, 5% v/v CO2). […] The resulting light signal was measured immediately in the luminometer.

[3] = target: T2, human P2X2/3 receptors (Homo sapiens, UniProt P56373+Q9UBL9); assay: Intracellular calcium measurement, antagonist activity at human P2X2/3 receptors (hP2X23 1321N1), Fluo8; conditions: for IC50: column 4); 1321N1 cells, human P2X2/3, Fluo8, agonist ATP at EC50; read-out: 4) hP2X2/3 IC50 [nM] (1321N1); for hP2X23/hP2X3* Selectivity (1321N1): ratio of column 4) hP2X2/3 to column 3) hP2X3, 1321N1
T2 construct: expressed in transfected cells; host or cells: human astrocytoma 1321N1 (1312N1 [sic])
T2 sequence (P56373 1-397): T1 sequence (P56373 1-397)
T2 sequence (Q9UBL9 1-471): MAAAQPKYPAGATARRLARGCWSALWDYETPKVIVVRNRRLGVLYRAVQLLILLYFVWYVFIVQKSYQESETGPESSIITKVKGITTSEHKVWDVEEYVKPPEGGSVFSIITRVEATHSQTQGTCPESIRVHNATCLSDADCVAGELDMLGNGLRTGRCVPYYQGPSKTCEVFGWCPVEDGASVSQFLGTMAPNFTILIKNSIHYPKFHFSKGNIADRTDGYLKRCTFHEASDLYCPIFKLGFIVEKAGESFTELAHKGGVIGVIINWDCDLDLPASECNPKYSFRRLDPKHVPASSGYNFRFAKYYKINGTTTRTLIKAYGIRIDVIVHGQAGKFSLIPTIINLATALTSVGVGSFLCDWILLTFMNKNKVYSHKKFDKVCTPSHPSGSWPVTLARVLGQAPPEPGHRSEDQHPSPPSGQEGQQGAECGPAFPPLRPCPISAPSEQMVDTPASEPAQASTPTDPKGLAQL
Description: as §1, §2, §3

Row | Compound | IC50 [1] [nM] | IC50 [2] [nM] | IC50 [3] [nM] | hP2X23/hP2X3* Selectivity (1321N1) [3]
1 | COCCN1Cc2c(n(CC(=O)Nc3ccc(F)cn3)c3cc(C4CC4)nn3c2=O)C1=O [Example 100] | 20 | 52 | 4850 | 243
2 | COC[C@H](C)N1Cc2c(n(CC(=O)Nc3ccc(F)cn3)c3cc(C4CCC4)nn3c2=O)C1=O [Example 110] | 12 | 7 | 3050 | 254
3 | CC(C)Cc1cc2n(CC(=O)Nc3ccc(F)cn3)c3c(c(=O)n2n1)CN(C1CCCC1)C3=O [Example 93] | 8 | 6 | 2350 | 295
4 | CCc1cc2n(CC(=O)Nc3ccc(F)cn3)c3c(c(=O)n2n1)CN(C[C@@H]1CNCCO1)C3=O [Example 246, 2-{2-ethyl-6-[(2S)-morpholin-2-ylmethyl]-5,8-dioxo-5,6,7,8-tetrahydro-4H-pyrazolo[1,5-a]pyrrolo[3,4-d]pyrimidin-4-yl}-N-(5-fluoropyridin-2-yl)acetamide] | 2200 | 830 | > 32000 | >15
5 | CC(C)N1Cc2c(n(CC(=O)Nc3ccc(F)cn3)c3cc(NCCO)nn3c2=O)C1=O [Example 276, N-(5-fluoropyridin-2-yl)-2-{2-[(2-hydroxyethyl)amino]-5,8-dioxo-6-(propan-2-yl)-5,6,7,8-tetrahydro-4H-pyrazolo[1,5-a]pyrrolo[3,4-d]pyrimidin-4-yl}acetamide] | 91 | 130 | > 20200 | >223
6 | CCc1cc2n(CC(=O)Nc3ccc(F)cn3)c3c(c(=O)n2n1)CN(CCCOC)C3=O [Example 109] | 280 | 133 | > 32000 | >114
7 | CC(C)N1Cc2c(n(CC(=O)Nc3ccc(F)cn3)c3cc(NC(=O)COCc4ccccc4)nn3c2=O)C1=O [Example 287, 2-(benzyloxy)-N-[4-{2-[(5-fluoropyridin-2-yl)amino]-2-oxoethyl}-5,8-dioxo-6-(propan-2-yl)-5,6,7,8-tetrahydro-4H-pyrazolo[1,5-a]pyrrolo[3,4-d]pyrimidin-2-yl]acetamide] | 48 | 32 | 1800 | 38
8 | CCOC(=O)c1cc2n(CC(=O)Nc3ccc(F)cn3)c3c(c(=O)n2n1)CN(C(C)C)C3=O [Example 70, ethyl 4-{2-[(5-fluoropyridin-2-yl)amino]-2-oxoethyl}-5,8-dioxo-6-(propan-2-yl)-5,6,7,8-tetrahydro-4H-pyrazolo[1,5-a]pyrrolo[3,4-d]pyrimidine-2-carboxylate] | 36 | 16 | 1800 | 51
9 | CCc1cc2n(CC(=O)Nc3ccc(F)cn3)c3c(c(=O)n2n1)CN(C[C@H]1CN(C(C)=O)CCO1)C3=O [Example 267] | 325 | 557 | 8000 | 25
10 | CC(C)N1Cc2c(n(CC(=O)Nc3ccc(F)cn3)c3cc(NCC(F)F)nn3c2=O)C1=O [Example 170] | 120 | 59 | > 20400 | >170
11 | CCc1cc2n(CC(=O)Nc3ccc(F)cn3)c3c(c(=O)n2n1)CN(C(COC)COC)C3=O [Example 99] | 15 | 21 | 9100 | 607
12 | CC(C)N1Cc2c(n(CC(=O)Nc3ccc(F)cn3)c3cc(C(=O)N(C)C)nn3c2=O)C1=O [Example 182, 4-{2-[(5-fluoropyridin-2-yl)amino]-2-oxoethyl}-N,N-dimethyl-5,8-dioxo-6-(propan-2-yl)-5,6,7,8-tetrahydro-4H-pyrazolo[1,5-a]pyrrolo[3,4-d]pyrimidine-2-carboxamide] | 165 | 109 | > 32000 | >194
13 | CCc1cc2n(CC(=O)Nc3ccc(F)cn3)c3c(c(=O)n2n1)CN(C1CCNC1)C3=O.Cl (racemic) [Example 236, 2-{2-ethyl-5,8-dioxo-6-[(±)-pyrrolidin-3-yl]-5,6,7,8-tetrahydro-4H-pyrazolo[1,5-a]pyrrolo[3,4-d]pyrimidin-4-yl}-N-(5-fluoropyridin-2-yl)acetamide hydrochloride (1:1)] | 1280 | 615 | > 32000 | >25
14 | CC(C)N1Cc2c(n(CC(=O)Nc3ccc(F)cn3)c3cc(C4CNC4)nn3c2=O)C1=O.Cl [Example 244] | 280 | 330 | 7900 | 28
15 | COCCN1Cc2c(n(CC(=O)Nc3ccc(F)cn3)c3cc(C4CCOCC4)nn3c2=O)C1=O [Example 97] | 47 | 66 | 9750 | 207
16 | CC(C)N1Cc2c(n(CC(=O)Nc3ccc(F)cn3)c3cc(NC(=O)C(F)F)nn3c2=O)C1=O [Example 283] | 347 | 165 | > 32000 | >92
17 | COCC(=O)Nc1cc2n(CC(=O)Nc3ccc(F)cn3)c3c(c(=O)n2n1)CN(C(C)C)C3=O [Example 285] | 143 | 110 | 12000 | 84
18 | CC(C)N1Cc2c(n(CC(=O)Nc3ccc(F)cn3)c3cc(-c4ccc(F)cn4)nn3c2=O)C1=O [Example 165] |  | 13 | 1460 | 
19 | Cc1ccc(-c2cc3n(CC(=O)Nc4ccc(F)cn4)c4c(c(=O)n3n2)CN([C@H]2CCOC2)C4=O)nc1 [Example 161, N-(5-fluoropyridin-2-yl)-2-{2-(5-methylpyridin-2-yl)-5,8-dioxo-6-[(3S)-oxolan-3-yl]-5,6,7,8-tetrahydro-4H-pyrazolo[1,5-a]pyrrolo[3,4-d]pyrimidin-4-yl}acetamide] |  | 24 | 1350 | 
